Test results as given in patent publication US20220202753A1, “METHOD OF DELIVERY OF INTRAVENOUS BACLOFEN” (Allaysis, LLC, priority 2020, published 2022).
Converted amounts (≈) assume the structure as drawn.

Columns and labels:
[1] = Study 1: two-way crossover study of oral and intravenous baclofen in healthy adult volunteers; format: in vivo, human
Excerpt: Study 1: Two-Way Crossover Study of Oral and Intravenous Baclofen in Healthy Adult Volunteers
The objective of the study was to characterize baclofen pharmacokinetics following oral and IV administration following low doses in healthy adult volunteers and determine the safety profile of an IV baclofen formulation.
This study was a randomized, open label, balanced, two-treatment, single dose, crossover design in normal, healthy adult human subjects under fasting conditions.
Initially, three adult volunteers received a single 3 mg IV and a 5 mg oral baclofen dose on separate study days. On the first day of drug administration in the study, one subject was given baclofen intravenously, and two subjects were given baclofen orally. On the second day of drug administration in the study, those that received baclofen orally received the TV dose and the individual who received the IV dose received the oral dose. Clinical tolerance was assessed, and plasma concentrations of baclofen were measured from the first three subjects before additional subjects were entered into the study. Nine additional adult volunteers received single 5 mg IV and 10 mg oral baclofen doses on separate days. Randomization occurred in a 1:1 ratio, such that all subjects received IV and oral baclofen on separate study days, but not necessarily in the same order. A total of twelve (12) subjects completed the clinical phase of the study. Plasma samples of 12 subjects were analyzed. However, the data from nine (9) subjects who received 5 mg IV and 10 mg oral tablet were considered for pharmacokinetic analysis and the calculation of within-subject variability. The three subjects who received 3 mg IV/5 mg oral baclofen were excluded from the pharmacokinetic analysis because more than half of the plasma concentrations were below the limit of quantitation (BLQ). Therefore, meaningful estimation of AUC was not possible for these subjects.

[2] = Study 2: dose escalation study of IV baclofen in healthy adult volunteers; format: in vivo, human; details: for subjects with asymptomatic nystagmus: 10-minute infusion, of 12 subjects; for bioavailability: human, plasma
Procedure: Study 2: Dose Escalation Study of IV Baclofen in Healthy Adult Volunteers
Following completion of the first-in-human study, a dose escalation study of IV and oral baclofen in 36 healthy volunteers was carried out using a randomized crossover oral/IV dose design and incorporating the investigational baclofen IV injection. The objectives of the study were: 1) characterize the pharmacokinetics of clinically relevant doses of oral and intravenous baclofen, 2) determine the safety profile of oral and intravenous baclofen, and 3) estimate bioequivalence parameters (AUC and Cmax) for 10- and 60-minute (only 15 mg dose) infusions of baclofen.
The general design of the study involved three cohorts of 12 subjects. Initially 3 subjects were randomized to receive the lowest dosing regimen. These subjects received a 7.5 mg IV infusion, followed by a washout period of 2 or more days, followed by a 10 mg oral dose. […] Twelve subjects completed Cohort 1 and received a […] IV and a 10 mg oral dose. The IV baclofen doses were based on a 75% bioavailability observed in the pilot study. In Cohort 2, 12 different subjects received 11.5 mg of IV and 15 mg of oral baclofen. In Cohort 3, another 12 subjects received 20 mg of oral and 15 mg of IV baclofen. Once all subjects had completed the 15 mg IV dose without complications, an additional dosing period was added to this Cohort in which 15 mg baclofen was infused over 60 in to 12 subjects. […] Blood samples were collected between 0-24 hours. A validated, liquid chromatography-mass spectroscopy assay was used to measure plasma baclofen concentrations.
Pharmacokinetic analysis was performed with Phoenix (Centara), a pharmacokinetic data analysis package. Pharmacokinetic parameters, including the observed maximum concentration (Cmax), the observed time to maximum concentration (Tmax), area under the concentration-time curve (AUC), clearance (CL), and volume of distribution (Vd), were estimated using non-compartmental analysis. The absolute oral bioavailability was calculated by dividing the dose-normalized AUC after oral dosing by the dose-normalized AUC after intravenous dosing. For an exploratory study of bioequivalence, the 90% confidence intervals of the geometric mean AUC(0-t), AUC(0-∞) and Cmax oral/AV ratios were determined using the 60-minute infusion as the test dose and the oral […] dose as the reference.

[3] = Combined results of the two pilot pharmacokinetic studies (first in human and dose escalation); format: in vivo; details: for bioavailability: human, plasma
Procedure: Two pilot studies were conducted to characterize baclofen pharmacokinetics and safety following intravenous administration and to access absolute bioavailability of IV and oral baclofen. These studies are described in: A Pilot Study Assessing Pharmacokinetics and Tolerability of Oral and Intravenous Baclofen in Healthy Adult Volunteers, Suresh K. Agarwal, Robert L. Kriel, James C. Cloyd, Lisa D. Coles, Lisa A. Scherkenbach, Michael H. Tobin, and Linda E. Krach, Journal of Child Neurology 2014, 30(1) 37-41; and A Randomized Dose Escalation Study of intravenous Baclofen in Healthy Volunteers: Clinical Tolerance and Pharmacokinetics, Schmitz N S, Krach L E, Coles L D, Mishra U, Agarwal S K, Cloyd J C, Kriel R L. PM&R, 2017, Volume 9(8), 743-750, both hereby incorporated by reference as though fully set forth herein. […] In order to meet bioequivalency criteria for both exposure (AUC) and peak concentration (Cmax), it was concluded that infusion times needed to be longer. To that end, modeling and simulation studies were performed to predict IV baclofen dosing regimens that would be bioequivalent to a 20 mg oral dose with respect to both AUC and Cm. These simulations formed the basis for a pivotal bioequivalence study where three different dosing regimens of baclofen IV (15 mg infused over 3 hours: 16 mg infused over 3 hours; and 16 mg infused over 4 hours, respectively) were compared to a single dose of a 20 mg oral tablet. Each of these IV regimens was bioequivalent to the 20 mg oral dosing but the 16 mg/3 hours dosing best met the bioequivalence criteria.
An important goal for adjusting the dose and duration of a baclofen infusion was to achieve bioequivalent systemic exposure (Cmax and AUC) between a single-dose baclofen IV infusion and a 20 mg oral baclofen tablet.

[4] = Population pharmacokinetic modeling and simulation of IV baclofen infusion duration; parameters: species or system human
Procedure: Plasma concentrations from cohorts 2 and 3 from Study 2 described above were used to build a two-compartment model simultaneously describing the IV and PO routes of administration. Population PK models were developed using data from cohort 3 and cohorts 2 and 3 combined (see FIGS. 4 and 5). It is worth noting that the PK parameter estimates from both study populations were similar. Two PK models with fixed absorption rate constants (Ka) of 0.6 and 0.8 hr^−1 were used. These were determined from estimates from the population pharmacokinetic model and literature.
To assess the effect of infusion duration on Cmax and AUC, simulations were performed using the population PK parameter estimates determined from the baclofen dose ranging study. Using the models described above, simulations (n=10) of 30 subjects were completed using a 20 mg oral dose and IV doses of 15 and 16 mg infused over 120, 150, 180, and 210 minutes. The simulated data were then analyzed using non-compartmental analysis and bioequivalence of the maximum concentration and area under the curve was assessed. FIGS. 10 and 11 summarize how many times of the 10 simulations that the infusion rate met bioequivalence when 16 and 15 mg doses were used, respectively.
To assess the effect of infusion duration on Cmax, a population pharmacokinetic model was developed using the observed plasma concentrations of baclofen following oral dosing of 20 mg and IV dosing of 15 mg infused over 10 and 60 minutes. Plasma concentrations of baclofen were best described by a two-compartment model, displaying a very rapid tissue distribution phase indicative of highly perfused tissues such as the liver, lung and brain and a more prolonged elimination phase. […] Using the PK model, baclofen concentrations for a 20t mg oral dose, a 15 mg IV dose infused over 180 minutes, and 16 mg IV dose infusions administered over 180 and 240 min were simulated. This allowed a determination of the effect of infusion duration on baclofen Cmax.

[5] = Clinical bioequivalence study of baclofen injection compared to baclofen tablets in healthy adult volunteers; format: in vivo, human
Excerpt: This study was designed as a two-part, single-dose bioequivalence study of baclofen injection (test formulation) compared to commercial baclofen tablets (reference product) in healthy adult volunteers under fasted conditions. Part 1 of this study was a single-dose, open-label, four-treatment, randomized, crossover bioequivalence study of baclofen tablets and baclofen injection in healthy adults under fasted conditions. If needed, Part 2 of this study was to be a single-dose, two-way crossover between the most promising infusion of baclofen injection from Part 1 and baclofen tablets.
Subjects were randomized to receive each of 4 treatments in a randomized, crossover fashion: • 15 mg of baclofen injection administered intravenously over 180 minutes • 16 mg of baclofen injection administered intravenously over 180 minutes • 16 mg of baclofen injection administered intravenously over 240 minutes • 20 mg of baclofen tablet administered orally
Each treatment administration was separated by a washout period of at least 3 days. Each dose was administered following a 10-hour overnight fast.
During each study period, 6 mL blood samples were obtained prior to study drug administration and at selected times through 48 hours after drug administration. In the study periods in which subjects received an IV infusion. PK sampling was timed relative to the start of the infusion. Plasma pharmacokinetic samples were analyzed for baclofen using a validated achiral bioanalytical method. Appropriate pharmacokinetic parameters were calculated for each formulation using non compartmental methods.
Treatments A, B, and C: • Treatment A dose:=15 mg of baclofen injection administered intravenously over 180 minutes • Treatment B dose=16 mg of baclofen injection administered intravenously over 180 minutes • Treatment C dose=16 mg of baclofen injection administered intravenously over 240 minutes
Control Product: Treatment D: • Baclofen Tablet, 20 mg, dose:=1×20 mg tablet
Concentration-time data for baclofen were analyzed using noncompartmental methods in Phoenix™ WinNonlin® Version 6.3, Certara L.P.). During the pharmacokinetic analysis, concentrations below the limit of quantitation […] up to the time of the first quantifiable concentration were treated ac zero. Embedded (values between 2 quantifiable concentrations) and/or terminal BLQ concentrations were treated as “missing”. Actual sample times, relative to the time of dose, were used in the pharmacokinetic analysis.
During each baclofen injection treatment period, samples were drawn at 0 hour (predose) and 0.5, 1.0, 1.5, 2.0, 2.5, 3.0, 3.5, 4.0, 4.5, 5.0, 6.0, 7, 8, 10, 12, 18, 24, 30, 36, and 48 hours after starting the infusion.
During the baclofen tablet administration treatment period, samples were drawn at 0 hour (predose) and at 0.25, 0.5, 0.75, 1.0, 1.5, 2.0 3.0, 3.5, 4.0, 5.0, 6.0, 7, 8, 10, 12, 18, 24, 30, 36, and 48 hours after oral administration.

[6] = cited from earlier work
[7] = 5 mg IV infused over 15 minutes vs 10 mg oral

## NCC(CC(=O)O)c1ccc(Cl)cc1 (centres unmarked) [baclofen, 4-amino-3-[4-chlorophenyl] butanoic acid]
[1]; [7]
  AUC of IV dose compared with oral dose: similar
  Cmax of IV dose compared with oral dose: higher
  Tmax of IV dose compared with oral dose: earlier
[1]; 3 and 5 mg IV
  tolerability: well tolerated
[1]; human, plasma, 10 mg oral vs 5 mg IV, n=9, fasting, read-out: estimated mean absolute bioavailability of oral baclofen
  bioavailability: 74%
[2]; 7.5 mg IV
  subjects with asymptomatic nystagmus: 2 subjects
[2]; 11.5 mg IV
  subjects with asymptomatic nystagmus: 6 subjects
[2]; 15 mg IV
  subjects with asymptomatic nystagmus: 6 subjects
[2]; 15 mg IV, 60-minute infusion
  subjects with mild transient ataxia: Two
  subjects with nystagmus: two
[2]; 15 mg at 60-min infusion
  bioequivalence of baclofen IV and oral baclofen by AUC0-t and AUC0-inf: not
[2]; 20 mg oral
  subjects with mild transient ataxia: One
[2]; 10- and 60-minute IV infusions
  bioequivalence of IV infusions and oral baclofen by Cmax: not bioequivalent
[2]; 10-min infusions at all dose levels
  bioequivalence of baclofen IV and oral baclofen by AUC0-t and AUC0-inf: demonstrated
[2]; 10-minute IV infusion, CI 247-281%
  mean Cmax ratio of IV infusion to oral baclofen: 263%
[2]; 60-minute IV infusion, CI 135-165%
  mean Cmax ratio of IV infusion to oral baclofen: 149%
[2]; following both oral and IV doses
  adverse effects: Mild, self-limited
[2]; oral, all cohorts, read-out: estimated mean bioavailability
  bioavailability: 89%
[2]; cohort 2 (11.5 mg IV, 15 mg oral), read-out: bioavailability estimate
  bioavailability: 85.8%
[2]; cohort 3 (15 mg IV, 20 mg oral), read-out: bioavailability estimate
  bioavailability: 81.2%
[2]; three and a half hours after a 10 mg oral dose
  subjects not awake (took 20 seconds to awaken): one
[3]; oral, 45 subjects, read-out: inter-patient range of % F
  bioavailability: 42 to 132%
[3]; oral, two pilot studies, 10- to 60-minute IV infusions, healthy volunteers, read-out: estimated mean bioavailability of oral baclofen
  bioavailability: 74 to 85%
[3]; po, 11.5 mg, read-out: mean oral bioavailability
  bioavailability: 80%
[3]; po, 15 mg, read-out: mean oral bioavailability
  bioavailability: 85%
[3]; po, 45 subjects, read-out: mean bioavailability of oral baclofen following a single dose
  bioavailability: ~86%
[3]; two prospective studies in healthy volunteers
  ratio of an IV to an oral dose: 80-85%
[4]; population PK model estimate
  mean bioavailability: 84%
[4]; two-compartment population PK model
  population mean terminal t1/2 (β): approximately 4.2 hours
[4]; two-compartment population PK model, 20 mg oral, 15 mg IV over 10 and 60 minutes
  mean distribution t1/2: ~0.3 h
[5]; 16 mg IV over 180 minutes, 90% CI 89.7-94.6%
  geometric mean ratio vs. Treatment D (20 mg oral tablet) for AUClast: 92.1%
[5]; 16 mg IV over 180 minutes, 90% CI 89.8-94.6%
  geometric mean ratio vs. Treatment D (20 mg oral tablet) for AUCinf: 92.2%
[5]; 16 mg IV over 180 minutes, 90% CI 93.7-101.0%
  geometric mean ratio vs. Treatment D (20 mg oral tablet) for Cmax: 97.3%
[5]; 20 mg oral tablet, fasted
  median Tmax: 1.0 h
[5]; IV administered over 180 minutes
  conversion factor to the oral regimen giving bioequivalent substitution: 0.8
[5]; all three IV infusions: 15 mg over 180 min, 16 mg over 180 min, 16 mg over 240 min
  bioequivalence to the 20 mg baclofen oral tablet: bioequivalent
[5]; human, plasma, other: intravenous infusions and oral tablet, IV infusions and oral tablet, read-out: mean T1/2
  half-life: 5.5 to 5.8 h
[5]; human, plasma, other: oral tablet versus intravenous infusions, 20 mg oral tablet vs IV infusions
  difference in median Tmax (oral tablet earlier than IV infusions): 2 to 3 h
[5]; human, plasma, across IV infusions (15 mg/180 min, 16 mg/180 min, 16 mg/240 min), read-out: median Tmax
  Tmax: 3 to 4 h
[5]; human, plasma, across IV infusions, read-out: mean total systemic clearance (CLT)
  clearance: 147 to 148 mL/min
[5]; human, plasma, across IV infusions, read-out: mean volume of distribution (Vz)
  Vd: 69.8 to 71.4 L
[6]; chloroform
  solubility in chloroform: insoluble
[6]; methanol
  solubility in methanol: very slightly soluble
[6]; water
  solubility in water: 2090 µg/mL (≈ 9.78 mM)
